Patent publication US9375000B2, “Pesticidal arylpyrrolidines” (Bayer Intellectual Property GmbH, priority 2011, dated 2016)
Several values for one entry are separate records, joined by “and”; a condition that tells them apart may be missing. Equal entries are not always repeated.

How the values were obtained:
Assay type in all cases: in vivo
[1] = tested on: Cucurbit Leaf Beetle (Aulacophora femoralis); test: Cucurbit leaf beetle (Aulacophora femoralis) cucumber leaf dip test; details: after 7 days
Procedure, shortened: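 Cucumber leaves dipped in compound formulated with DMF and polyoxyethylene alkyl phenyl ether, diluted in water, with ammonium salt or ammonium salt plus penetration enhancer at 1000 ppm added if necessary; dried leaves placed on sterilized soil with five second-instar larvae. Kept at 25° C; larval mortality counted after 7 days.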

[2] = tested on: Tobacco Cutworm (Spodoptera litura) Larvae; test: Tobacco cutworm (Spodoptera litura) larvae, sweet potato leaf dip test; details: dead larvae after 7 days
Experimental: Unless not mentioned otherwise, the test solutions were prepared as follows:
Solvent: 3 parts by weight Dimethylformamide
Emulsifier: 1 part by weight Polyoxyethylene alkyl phenyl ether
In order to make an appropriate formulation of an active compound, 1 part by weight of the active compound is mixed with the above mentioned amount of solvent and emulsifier and the mixture is diluted with water to a prescribed concentration. Ammonium salt or ammonium salt and penetration enhancer in a dosage of 1000 ppm are added to the desired concentration if necessary.
Leaves of sweet potato were immersed in the test solution at the appropriate concentration, and the leaves were dried in air. The leaves were then placed in a petri dish having a diameter of 9 cm, and ten Spodoptera litura at third instar larvae were released therein. The petri dishes were placed in a temperature-controlled chamber at 25° C. After 2 days and 4 days more sweet potato leaves were added. After 7 days, the number of dead larvae was counted to calculate the insecticidal activity. An insecticidal activity of 100% means that all larvae were killed, whereas an insecticidal activity of 0% means that no larva was killed. In the current test, the results of two petri dishes for each treatment were averaged.

Thrips palmi = Thrips palmi spray test (THRIPL); details: after 6 days
Procedure, shortened: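 Cucumber seedlings sprayed with compound formulated in DMF/polyoxyethylene alkyl phenyl ether and diluted in water, ammonium salt ± penetration enhancer at 1000 ppm added if needed. About 100 T. palmi eggs attached, plants held caged at 100% humidity, 23 °C. Percent activity scored from feeding damage after 6 days, 100 = no damage, 0 = as untreated.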

[3] = tested on: Two-Spotted Spider Mite (Tetranychus urticae); test: Two-spotted spider mite (Tetranychus urticae) spray test on kidney bean; details: after 7 days
Procedure, shortened: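 Kidney bean plants at the two-leaf stage carried 50-100 adult mites and were sprayed one day later with compound in DMF/polyoxyethylene alkyl phenyl ether diluted in water. Ammonium salt and penetration enhancer at 1000 ppm were added if needed. Acaricidal activity (% mites killed) was scored after 7 days in a greenhouse.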

[4] = tested on: Larvae of Spodoptera litura; test: Larvae of Spodoptera litura, method using artificial feeds; details: artificial feed, after 7 days
Procedure, shortened: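 Compound formulated in dimethylformamide with polyoxyethylene alkyl phenyl ether emulsifier, water-diluted and poured onto artificial diet. Five 3rd-instar Spodoptera litura larvae per cup, held at 25° C and 50-60% humidity. Mortality after 7 days expressed as pesticidal ratio.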

[5] = tested on: adult engorged female Boophilus microplus ticks; test: Test against Boophilus microplus (dip); details: dip, after 7 days
Experimental: (§1) Solvent: dimethyl sulfoxide
To produce a suitable preparation of active compound, 10 mg of active compound are dissolved in 0.5 ml solvent, and the concentrate is diluted with water to the desired concentration. Eight to ten adult engorged female Boophilus microplus ticks are placed in perforated plastic beakers and immersed in aqueous compound solution for one minute. Ticks are transferred to a filter paper in a plastic tray. Egg deposition of fertile eggs is monitored after. After 7 days mortality in % is determined. 100% means that all the ticks have been killed; 0% means that none of the ticks have been killed.

Ctenocephalides felis = test: Test against Ctenocephalides felis (CTECFE), blood feeding; details: application rate 100 ppm in cattle blood; after 2 days
Experimental: as §1
To produce a suitable preparation of active compound, 10 mg of active compound are dissolved in 0.5 ml solvent, and the concentrate is diluted with cattle blood to the desired concentration. Approximately 20 adult unfed (Ctenocepahlides felis) are placed in flea chambers. The blood chamber, sealed with parafilm on the bottom, are filled with cattle blood supplied with compound solution and placed on top of the flea chamber, so that the fleas are able to suck the blood. The blood chamber is heated to 37° C. whereas the flea chamber is kept at room temperature.
After 2 days mortality in % is determined. 100% means that all the fleas have been killed; 0% means that none of the fleas have been killed.

[6] = active compound concentration 20 ppm
[7] = active compound concentration 4 ppm
[8] = active compound concentration 100 ppm

| Compound | insecticidal activity [1, 6] [%] | insecticidal activity [2, 7] [%] | insecticidal activity (by feeding damage degree) (Thrips palmi; [6]) [%] | acaricidal activity [3, 7] [%] | insecticidal activity (pesticidal ratio) [4, 6] [%] | acaricidal activity [3, 6] [%] | also measured |
| --- | --- | --- | --- | --- | --- | --- | --- |
| O=C(CC(F)(F)F)NCc1ccc(N2CCC(c3cc(Cl)cc(Cl)c3)(C(F)(F)F)C2O)cc1Br (mixture of isomers) [A1-112] | 100 | 100 | 98 | 100 | – | – | – |
| CCC(=O)NC(C)c1ccc(N2CCC(c3cc(Cl)c(Cl)c(Cl)c3)(C(F)(F)F)C2O)cc1 (mixture of isomers) [A2-13] | – | – | – | – | 100 | 100 | insecticidal activity [2, 6]: 100% |
| CS(=O)(=O)CC(=O)NCc1ccc(N2CCC(c3cc(C(F)(F)F)cc(C(F)(F)F)c3)(C(F)(F)F)C2O)nc1Br (mixture of isomers) [A3-165] | 100 | – | – | 90 | 100 | – | activity (mortality) ([5]; application rate 100 ppm): 90%; insecticidal activity [1, 7]: 100%; insecticidal activity (pesticidal ratio) [4, 7]: 100% |
| C[S+]([O-])CC(=O)NCc1ccc(N2CCC(c3cc(C(F)(F)F)cc(C(F)(F)F)c3)(C(F)(F)F)C2O)cc1Cl (stereo not shown) [A1-32] | 100 | – | – | – | 100 | 100 | activity (mortality) ([5]; application rate 20 ppm): 95% |
| O=C(NCc1ccc(N2CCC(c3cc(F)cc(Cl)c3)(C(F)(F)F)C2O)cc1C(F)(F)F)C1CC1 (stereo not shown) [A1-242] | 100 | 100 | 90 | 100 | – | – | – |
| CCC(=O)NCc1ccc(N2CCC(c3cc(Cl)c(Cl)c(Cl)c3)(C(F)(F)F)C2O)cc1 (stereo not shown) [A1-384] | 100 | 100 | 90 | 98 | – | – | – |
| CCCC(=O)NCc1ccc(N2CCC(c3cc(Cl)c(Cl)c(Cl)c3)(C(F)(F)F)C2O)nc1C(F)(F)F (stereo not shown) [A3-14] | 100 | – | – | 100 | 100 | 100 | insecticidal activity [1, 7]: 100%; activity (mortality) (Ctenocephalides felis): 95%; insecticidal activity (pesticidal ratio) [4, 7]: 100% |
| O=C(NCc1ccc(N2CCC(c3cc(Cl)c(Cl)c(Cl)c3)(C(F)(F)F)C2O)nc1C(F)(F)F)C1CC1 (stereo not shown) [A3-16] | 100 | – | – | – | 100 | 100 | insecticidal activity [2, 6]: 100% |
| O=C(NCc1ccc(N2CCC(c3cc(C(F)(F)F)cc(C(F)(F)F)c3)(C(F)(F)F)C2O)nc1C(F)(F)F)C1CC1 (stereo not shown) [A3-27] | 100 | – | – | – | 100 | 100 | insecticidal activity [2, 6]: 100% |
| CCC(=O)NCc1ccc(N2CCC(c3cc(Cl)c(Cl)c(Cl)c3)(C(F)(F)F)C2O)nc1Cl (stereo not shown) [A3-101] | 100 | 100 | 98 | 100 | – | – | – |
| O=C(NCc1cnc(N2CCC(c3cc(Cl)cc(Cl)c3)(C(F)(F)F)C2O)nc1C(F)(F)F)C1CC1 (stereo not shown) [A4-5] | 100 | 100 | 90 | 100 | – | – | – |
| O=C(CC(F)(F)F)NCc1cnc(N2CCC(c3cc(Cl)cc(Cl)c3)(C(F)(F)F)C2O)nc1C(F)(F)F (stereo not shown) [A4-7] | 100 | 100 | 90 | 100 | – | – | – |
| CS(=O)(=O)CC(=O)NCc1cnc(N2CCC(c3cc(Cl)cc(Cl)c3)(C(F)(F)F)C2O)nc1C(F)(F)F (stereo not shown) [A4-11] | – | 100 | 90 | 100 | – | – | – |
| CC(=O)NCc1cnc(N2CCC(c3cc(Cl)c(Cl)c(Cl)c3)(C(F)(F)F)C2O)nc1C(F)(F)F (stereo not shown) [A4-12] | – | 100 | 90 | 100 | – | – | – |
| CCC(=O)NCc1cnc(N2CCC(c3cc(Cl)c(F)c(Cl)c3F)(C(F)(F)F)C2O)nc1C(F)(F)F (stereo not shown) [A4-112] | 100 | 100 | 98 | 100 | – | – | – |
| CCC(=O)NCc1cnc(N2CCC(c3cc(Cl)c(Cl)c(Cl)c3)(C(F)(F)F)C2O)cc1C(F)(F)F (stereo not shown) [A5-13] | 100 | 100 | – | – | – | 100 | insecticidal activity (pesticidal ratio) [4, 7]: 100%; insecticidal activity (by feeding damage degree) (Thrips palmi; [8]): 100% and 90%; acaricidal activity [3, 8]: 98% |
| O=C(NCc1cnc(N2CCC(c3cc(Cl)c(Cl)c(Cl)c3)(C(F)(F)F)C2O)cc1C(F)(F)F)C1CC1 (stereo not shown) [A5-16] | 100 | 100 | – | – | – | 100 | insecticidal activity (by feeding damage degree) (Thrips palmi; [8]): 100% |
| O=C(CC(F)(F)F)NCc1cnc(N2CCC(c3cc(Cl)c(Cl)c(Cl)c3)(C(F)(F)F)C2O)cc1C(F)(F)F (stereo not shown) [A5-18] | 100 | 100 | – | – | – | 100 | activity (mortality) (Ctenocephalides felis): 90%; insecticidal activity (by feeding damage degree) (Thrips palmi; [8]): 100% |
| CS(=O)(=O)CC(=O)NCc1cnc(N2CCC(c3cc(Cl)c(Cl)c(Cl)c3)(C(F)(F)F)C2O)cc1C(F)(F)F (stereo not shown) [A5-22] | 100 | 100 | – | – | – | 100 | insecticidal activity (by feeding damage degree) (Thrips palmi; [8]): 98% |
| CC(=O)NCc1cnc(N2CCC(c3cc(Cl)c(F)c(Cl)c3F)(C(F)(F)F)C2O)cc1C(F)(F)F (stereo not shown) [A5-78] | 100 | 100 | – | 100 | – | – | – |
| CCC(=O)NCc1cnc(N2CCC(c3cc(Cl)c(F)c(Cl)c3F)(C(F)(F)F)C2O)cc1C(F)(F)F (stereo not shown) [A5-79] | – | 100 | 90 | 100 | – | – | – |
| CC(NC(=O)C1CC1)c1ccc(N2CC(c3cc(C(F)(F)F)cc(C(F)(F)F)c3)(C(F)(F)F)CC2=O)cc1 (stereo not shown) [C2-27-b] | 100 | – | – | – | 100 | 100 | insecticidal activity [2, 6]: 100% |
